Test results from EP2790511B1 (Merck Sharp & Dohme Corp., priority 2011, dated 2013).

target: T1, hROMK (hKir1.1) (Homo sapiens, UniProt P48048); experiment: Thallium Flux Assay; type: cell-based; conditions: HEK293 cells stably expressing hROMK (hKir1.1), FLIPR-Tetra; read-out: Thallium Flux IC50
T1 construct: expressed in transfected cells
T1 sequence (P48048 1-391): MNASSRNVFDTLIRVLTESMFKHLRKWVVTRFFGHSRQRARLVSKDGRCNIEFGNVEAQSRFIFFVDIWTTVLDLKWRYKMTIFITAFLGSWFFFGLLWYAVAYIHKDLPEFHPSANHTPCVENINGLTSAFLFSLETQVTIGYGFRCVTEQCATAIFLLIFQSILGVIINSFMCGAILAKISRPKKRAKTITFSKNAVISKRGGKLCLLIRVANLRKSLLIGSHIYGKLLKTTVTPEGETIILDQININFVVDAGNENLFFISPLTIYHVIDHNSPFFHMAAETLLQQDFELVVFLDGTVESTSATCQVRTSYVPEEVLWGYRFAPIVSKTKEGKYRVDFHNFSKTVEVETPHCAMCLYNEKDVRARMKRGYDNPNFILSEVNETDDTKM
Summary of the method: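 HEK293 cells stably expressing hROMK, loaded with FluxOR dye 90 min at ambient temperature, then compound 30 min with 0.3 mM ouabain in probenecid buffer pH 7.4.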

| Structure (SMILES) | IC50 [nM] |
| --- | --- |
| COc1cc(F)c([C@@H]2CN3CCN(C(=O)Cc4cnc(-n5cnnn5)nc4)C[C@H]3CO2)cc1C#N [Example 168, 4-fluoro-2-methoxy-5-[(3R,9aS)-8-{[2-(1H-tetrazol-1-yl)pyrimidin-5-yl]acetyl}octahydropyrazino[2,1-c][1,4]oxazin-3-yl]benzonitrile] | 350 |
| Cc1cc([C@H]2CN3CCN(C(=O)Cc4ccc(-n5cnnn5)nc4)C[C@@H]3CO2)c(C)c(C#N)c1F [Example 173, 2-fluoro-3,6-dimethyl-5-[(3S,9aR)-8-{[6-(1H-tetrazol-1-vl)pvridin-3-yl]acetyl}octahydropyrazino[2,1-c][1,4]oxazin-3-yl]benzonitrile] | 300 |
| Cc1cc([C@@H]2CN3CCN(C(=O)Cc4ccc(-n5cnnn5)nc4)C[C@@H]3CO2)c(C)c(C#N)c1F [Example 174, 2-fluoro-3,6-dimethyl-5-[(3R,9aR)-8-{[6-(1H-tetrazol-1-vl)pvridin-3-yl]acetyl}octahydropyrazino[2,1-c][1,4]oxazin-3-yl]benzonitrile] | 350 |
| O=C(Cc1cnc(-n2cnnn2)nc1)N1CCN2C[C@@H](c3ccc4nonc4c3)OC[C@@H]2C1 [Example 175, (3R,9aS)-3-(2,1,3-benzoxadiazol-5-yl)-8-{[2-(1H-tetrazol-1-vl)pvrimidin-5-yl]acetyl}octahydropyrazino[2,1-c][1,4]oxazine] | 530 |
| Cc1c([C@H]2CN3CCN(C(=O)Cc4ccc(-n5cnnn5)nc4)C[C@H]3CO2)ccc2nonc12 [Example 176, (3S,9aS)-3-(4-methyl-2,1,3-benzoxadiazol-5-yl)-8-{[6-(1H-tetrazol-1-yl)pyridin-3-yl]acetyl}octahydropyrazino[2,1-c][1,4]oxazine] | 200 |
| Cc1c([C@@H]2CN3CCN(C(=O)Cc4ccc(-n5cnnn5)nc4)C[C@H]3CO2)ccc2nonc12 [Example 177, (3R,9aS)-3-(4-methyl-2,1,3-benzoxadiazol-5-yl)-8-{[6-(1H-tetrazol-1-yl)pyridin-3-yl]acetyl}octahydropyrazino[2,1-c][1,4]oxazine] | 250 |
| O=C(Cc1ccc(-n2cnnn2)cn1)N1CCN2C[C@@H](c3ccc4nonc4c3)OC[C@@H]2C1 [Example 178, (3R,9aS)-3-(2,1,3-benzoxadiazol-5-yl)-8-{[5-(1H-tetrazol-1-vl)pvridin-2-yl]acetyl}octahydropyrazino[2,1-c][1,4]oxazine] | 350 |
| Cc1c([C@H]2CN3CCN(C(=O)Cc4ccc(-n5cnnn5)nc4)C[C@H]3CS2)ccc(F)c1C#N [Example 185, 6-fluoro-2-methyl-3-[(3S,9aS)-8-{[6-(1H-tetrazol-1-yl)pyridin-3-yl]acetyl}octahydropyrazino[2,1-c][1,4]thiazin-3-yl]benzonitrile] | 180 |
| Cc1c([C@H]2CN3CCN(C(=O)Cc4ccc(-n5cnnn5)cn4)C[C@H]3CS2)ccc(F)c1C#N [Example 186] | 270 |
| Cc1c([C@H]2CN3CCN(C(=O)C(F)(F)c4cnc(-n5cnnn5)nc4)C[C@H]3CO2)ccc(F)c1C#N [Example 188, 3-((3S,9aS)-8-(2-(2-(1H-tetrazol-1-yl)pyrimidin-5-yl)-2,2-difluoroacetyl)octahydropyrazino[2,1-c][1,4]oxazin-3-yl)-6-fluoro-2-methylbenzonitrile] | 350 |
| Cc1c([C@H]2CN3CCN(C(=O)Cc4cnc(-n5cnnn5)nc4)C[C@H]3CN2)ccc(F)c1C#N [Example 189, 3-((3S,9aR)-8-(2-(2-(1H-tetrazol-1-yl)pyrimidin-5-yl)acetyl)octahydro-1H-pyrazino[1,2-a]pyrazin-3-yl)-6-fluoro-2-methylbenzonitrile] | 120 |
| Cc1c([C@H]2CN3CCN(C(=O)Cc4ccc(-n5cnnn5)nc4)C[C@H]3CN2)ccc2c1COC2=O [Example 190, 4-methyl-5-[(3S,9aR)-8-{[6-(1H-tetrazol-1-yl)pyridin-3-yl]acetyl}octahydro-2H-pyrazino[1,2-a]pyrazin-3-yl]-2-benzofuran-1(3H)-one] | 390 |
| Cc1c([C@H]2CN3CCN(C(=O)Cc4ccc(-n5cnnn5)cn4)C[C@H]3CN2)ccc(F)c1C#N [Example 191, 6-fluoro-2-methyl-3-[(3S,9aR)-8-{[5-(1H-tetrazol-1-yl)pyridin-2-yl]acetyl}octahydro-2H-pyrazino[1,2-a]pyrazin-3-yl]benzonitrile] | 120 |
| Cc1c([C@@H]2CN3CCN(C(=O)Cc4ccc(-n5cnnn5)cn4)C[C@H]3CN2)ccc(F)c1C#N [Example 195, 6-fluoro-2-methyl-3-[(3R,9aR)-8-{[5-(1H-tetrazol-1-yl)pyridin-2-yl]acetyl}octahydro-2H-pyrazino[1,2-a]pyrazin-3-yl]benzonitrile] | 250 |
| C[C@@H]1Cc2cc([C@@H]3CN4CCN(C(=O)Cc5ccc(-n6cnnn6)nc5)C[C@H]4CN3)ccc2C(=O)O1 [Example 196, (3R)-3-methyl-6-[(3R,9aR)-8-{[6-(1H-tetrazol-1-yl)pyridin-3-yl]acetyl}octahydro-2H-pyrazino[1,2-a]pyrazin-3-yl]-3,4-dihydro-1H-isochromen-1-one] | 230 |

same assay, conditions: Thallium Flux IC50

| Structure (SMILES) | IC50 [nM] |
| --- | --- |
| O=C(Cc1ccc(-n2cnnn2)nc1)N1CCN2C[C@@H](c3ccc4nonc4c3)OC[C@@H]2C1 [Example 179, (3R,9aS)-3-(2,1,3-benzoxadiazol-5-yl)-8-{[6-(1H-tetrazol-1-vl)pvridin-3-yl]acetyl}octahydropyrazino[2,1-c][1,4]oxazine] | 180 |
| O=C(Cc1ccc(-n2cnnn2)nc1)N1CCN2C[C@H](c3ccc4nonc4c3)OC[C@@H]2C1 [Example 180, (3S,9aS)-3-(2,1,3-benzoxadiazol-5-yl)-8-{[6-(1H-tetrazol-1-vl)pvridin-3-yl]acetyl}octahydropyrazino[2,1-c][1,4]oxazine] | 590 |
| N#Cc1c(F)ccc([C@H]2CN3CCN(C(=O)Cc4ccc(-n5cnnn5)nc4)C[C@H]3CO2)c1C1CC1 [Example 181, 2-cyclopropyl-6-fluoro-3-[(3S,9aS)-8-{[6-(1H-tetrazol-1-vl)pvridin-3-yl]acetyl}octahydropyrazino[2,1-c][1,4]oxazin-3-yl]benzonitrile] | 380 |
| Cc1c([C@H]2CN3CCN(C(=O)Cc4ccc(-n5cnnn5)nc4)C[C@H]3CS2(=O)=O)ccc(F)c1C#N [Example 187, 3-[(3S,9aS)-2,2-dioxido-8-{[6-(1H-tetrazol-1-yl)pyridin-3-yl]acetyl}octahydropyrazino[2,1-c][1,4]thiazin-3-yl]-6-fluoro-2-methylbenzonitrile] | 280 |
| Cc1c([C@H]2CN3CCN(C(=O)Cc4ccc(-n5cnnn5)nc4)C[C@H]3CN2)ccc(F)c1C#N [Example 192, 6-fluoro-2-methyl-3-[(3S,9aR)-8-{[6-(1H-tetrazol-1-yl)pyridin-3-yl]acetyl}octahydro-2H-pyrazino[1,2-a]pyrazin-3-yl]benzonitrile] | 70 |
| Cc1c([C@@H]2CN3CCN(C(=O)Cc4cnc(-n5cnnn5)nc4)C[C@H]3CN2)ccc(F)c1C#N [Example 193, 6-fluoro-2-methyl-3-[(3R,9aR)-8-{[2-(1H-tetrazol-1-yl)pyrimidin-5-yl]acetyl}octahydro-2H-pyrazino[1,2-a]pyrazin-3-yl]benzonitrile] | 100 |
